What was measured:
[1] = system: HUVEC cells; experiment: MTT cytotoxicity assay, HUVEC cells; format: cell-based; details: Homo sapiens, 48 h incubation, * = compound precipitated at 1 mM from cell cultures
Procedure: (§1) A series of dicarboximides derivatives (table 1) was tested for cytotoxic properties against four cell lines. The tests were conducted by means of MTT assay where yellow tetrazole salt was processed by the dehydrogenases in mitochondria of live cells into violet formazan. The following cell lines were used:
- HUVEC cells (normal human endothelial cells).
(§2) 1. HeLa, K562, HL60, HUVEC cells in an amount of 7 thousand cells / well (in 200 µL medium) were seeded in 96-well plates. Cells were incubated overnight in an incubator (37°C, 5% CO2)
(§3) 2. Test compounds were dissolved in DMSO and added in an amount of 2µL to the surface of the cells to give the following final concentrations in the cell culture (1 mM, 10 µm, 100 nM, 1 nM). As a control, cells exposed to 1% DMSO were used.
(§4) 3. Cytotoxicity of the test compounds was evaluated by MTT test. After 48-hour incubation of HeLa, K562, HL60 or HUVEC cells with the test compounds, MTT (5mg/mL) was added in an amount of 25µL/well. MTT, a yellow tetrazolium salt was reduced to purple formazan by mitochondrial dehydrogenases of living cells. The amount of formazan could be determined spectrophotometrically and was proportional to the number of live cells. Cells were incubated with MTT for 2 hours in an incubator (37°C, 5% CO2). Next, lysis buffer containing SDS and DMF was added (95µL/well) to each well and incubated overnight at 37°C, 5% CO2.
(§5) 4. The plates were analyzed by reading the absorbance at a wavelength of 570 nm and 650 nm using the plate-reader Fluostar Omega. The measured absorbance at 570 nm is proportional to the number of living cells. IC50 values (concentration of compound causing 50% cell mortality) were read from the charts by interpolation to 50% cell survival.

[2] = system: HeLa cells; experiment: MTT cytotoxicity assay, HeLa cells; format: cell-based; details: Homo sapiens, 48 h incubation, * = compound precipitated at 1 mM from cell cultures
Procedure: as §1
- HeLa cells (uterine cervix cancer)
as §2, §3, §4, §5

[3] = system: K562 cells; experiment: MTT cytotoxicity assay, K562 cells; format: cell-based, human; details: 48 h incubation, * = compound precipitated at 1 mM from cell cultures
Procedure: as §1
- K562 cells (human chronic myelogenous leukaemia) and
as §2, §3, §4, §5

[4] = system: caspase 3 and 7; experiment: Apo-ONE Homogeneous Caspase-3/7 Assay in K562 cells; format: cell-based, human; details: for activity of caspase 3 and 7: 5 x IC50 (a5: 10 µM), 18 hours, compared with K562 and K562+DMSO, Fig. 1
Procedure: The observed cytotoxicity of compounds a3-7 was tested for its origin, i.e. induction of necrosis or apoptosis in the K562 cells of chronic myelogenous leukaemia.
K562 cells in RPMI 1640 medium containing 10% fetal calf serum and antibiotics were seeded on 96-well plate in an amount of 20x10^3 cells / well. Cells were cultured for 24 hours in an incubator (5% CO2, 37°C).
Compounds a3-a7 were dissolved in DMSO and added to the cell medium; final concentration in the cell culture was 5 x IC50. Cells cultured in the presence of 1% DMSO served as a negative control. Cells grown in the presence of 1 µM staurosporin (a strong inducer of apoptosis) served as a positive control. […]
The activity of caspase 3 and 7 was determined by means of Apo-ONE® Homogeneous Caspase-3/7 Assay (Promega, Madison, WI, USA), in compliance with manufacturer's guidelines. Cells were lysed and incubated with a profluorescent substrate for caspases for 1.5 hours at room temperature. Due to proteolytic activity of caspases, the profluorescent substrate was converted into a fluorescent product the amount of which could be determined by measurement of fluorescence intensity.
The fluorescence intensity in each well was measured using a plate reader Fluostar Omega (BMG-Labtech, Germany) at an excitation wavelength of 485 nm and emission 520 nm. The intensity of fluorescence is proportional to the activity of caspase 3 and 7 in the sample.

[5] = system: HL60 cells; experiment: MTT cytotoxicity assay, HL60 cells; format: cell-based; details: Homo sapiens, HL-60, 48 h, 48 h incubation
Procedure: as §1
- HL60 cells (human acute myelogenous leukaemia)
as §2, §3, §4, §5

[6] = * = compound precipitated at 1 mM from cell cultures

SMILES	IC50 [1]	IC50 [2]	IC50 ([3]; Homo sapiens, K562, 48 h)	also measured
CN(C)CCCN1C(=O)C2C(C1=O)C1(c3ccccc3)CC2(c2ccccc2)C(c2ccccc2)=C1c1ccccc1 (stereo not shown) [a2]	4 µM	1 µM	1 µM	–
CC(C)NCC(O)CN1C(=O)C2C(C1=O)C1(C)C(=O)C2(C)C(c2ccccc2)=C1c1ccccc1 (stereo not shown) [a11]	70 µM	90 µM	90 µM	–
CN(C)CC(O)CN1C(=O)C2C(C1=O)C1(c3ccccc3)CC2(c2ccccc2)C(c2ccccc2)=C1c1ccccc1 (stereo not shown) [a10]	1 µM	1 µM	1 µM	–
COC12C=CC(CC1)C1C(=O)N(CCCN(C)C)C(=O)C12 (stereo not shown) [b5]	–	> 1000 µM	> 1000 µM	–
CC(=O)OC12C=CC(OC(C)=O)(CC1)C1C(=O)N(CCN3CCCCC3)C(=O)C12 (stereo not shown) [b9]	–	> 1000 µM	> 1000 µM	–
CC1=CC2(C)CC(C)(C)C1C1C(=O)N(CCN3CCCCC3)C(=O)C12 (stereo not shown) [b14]	–	100 µM	100 µM	–
CCN(CC)CCN1C(=O)C2C3C(C)=CC(C)(CC3(C)C)C2C1=O (stereo not shown) [b12]	–	1000 µM	> 1000 µM	–
CCC12C(=O)C(CC)(C(c3ccccc3)=C1c1ccccc1)C1C(=O)N(CCCN(C)C)C(=O)C12 (stereo not shown) [a6]	> 1000 µM	> 1000 µM	–	activity of caspase 3 and 7 [4]: do not increase; IC50 [5]: 1 to 10 µM; IC50 [5, 6]: > 1000 µM; IC50 [3]: 8 µM
CCOC(=O)C1CC2C(=O)CC1(C)C1C(=O)N(CCN(CC)CC)C(=O)C21 (stereo not shown) [c7]	–	> 1000 µM	> 1000 µM	–
CCC12C(=O)C(CC)(C(c3ccccc3)=C1c1ccccc1)C1C(=O)N(CCN3CCCCC3)C(=O)C12 (stereo not shown) [a5]	> 1000 µM	> 1000 µM	1 to 10 µM	activity of caspase 3 and 7 [4]: increased; activity of caspases 3 and 7 ([4]; a5 concentration = 10 µM, incubation time = 24h): increased; IC50 [5]: 1 to 10 µM; IC50 [5, 6]: > 1000 µM; IC50 [3]: 2 µM
CC(C)COC12CCC(C(=O)C1)C1C(=O)N(CCN3CCOCC3)C(=O)C12 (stereo not shown) [c3]	–	> 1000 µM	> 1000 µM	–
CC(C)COC12CCC(C(=O)C1)C1C(=O)N(CCN(C)C)C(=O)C12 (stereo not shown) [c1]	–	> 1000 µM	> 1000 µM	–
CC(=O)OC12C=CC(OC(C)=O)(CC1)C1C(=O)N(CCN(C)C)C(=O)C12 (stereo not shown) [b6]	–	> 1000 µM	> 1000 µM	–
CC(C)COC12CCC(C(=O)C1)C1C(=O)N(CCCN(C)C)C(=O)C12 (stereo not shown) [c5]	–	> 1000 µM	> 1000 µM	–
CC(=O)OC12C=CC(OC(C)=O)(CC1)C1C(=O)N(CCCN(C)C)C(=O)C12 (stereo not shown) [b10]	–	> 1000 µM	> 1000 µM	–
CC(C)NCC(O)CN1C(=O)C2C(C1=O)C1(c3ccccc3)C(=O)C2(c2ccccc2)C(c2ccccc2)=C1c1ccccc1 (stereo not shown) [a13]	2 µM	1 µM	0.9 µM	–
CC(C)NCC(O)CN1C(=O)C2C(C1=O)C1(c3ccccc3)CC2(c2ccccc2)C(c2ccccc2)=C1c1ccccc1 (stereo not shown) [a9]	1 µM	1 µM	1 µM	–
CCN(CC)CCN1C(=O)C2C3CCC(OCC(C)C)(CC3=O)C2C1=O (stereo not shown) [c2]	–	> 1000 µM	> 1000 µM	–
CCN(CC)CCN1C(=O)C2C(C1=O)C1(CC)C(=O)C2(CC)C(c2ccccc2)=C1c1ccccc1 (stereo not shown) [a4]	> 1000 µM	> 1000 µM	–	activity of caspase 3 and 7 [4]: do not increase; IC50 [5]: 1 to 10 µM; IC50 [5, 6]: > 1000 µM; IC50 [3]: 4.5 µM

SMILES	IC50 [1]	IC50 [2]	IC50 ([3]; Homo sapiens, K562, 48 h)	also measured
CCOC(=O)C1CC2C(=O)CC1(C)C1C(=O)N(CCN(C)C)C(=O)C21 (stereo not shown) [c6]	> 1000 µM	100 µM	> 1000 µM	–
COC12C=CC(CC1)C1C(=O)N(CCN3CCOCC3)C(=O)C12 (stereo not shown) [b3]	–	> 1000 µM	> 1000 µM	–
CCN(CC)CCN1C(=O)C2C3C=CC(OC)(CC3)C2C1=O (stereo not shown) [b2]	–	> 1000 µM	> 1000 µM	–
CCOC(=O)C1CC2C(=O)CC1(C)C1C(=O)N(CCCN(C)C)C(=O)C21 (stereo not shown) [c10]	–	> 1000 µM	> 1000 µM	–
CC(=O)OC12C=CC(OC(C)=O)(CC1)C1C(=O)N(CCN3CCOCC3)C(=O)C12 (stereo not shown) [b8]	–	> 1000 µM	> 1000 µM	–
CN(C)CC(O)CN1C(=O)C2C(C1=O)C1(c3ccccc3)C(=O)C2(c2ccccc2)C(c2ccccc2)=C1c1ccccc1 (stereo not shown) [a14]	2 µM	1 µM	0.9 µM	–
CC(C)COC12CCC(C(=O)C1)C1C(=O)N(CCN3CCCCC3)C(=O)C12 (stereo not shown) [c4]	–	> 1000 µM	> 1000 µM	–
CC1=CC2(C)CC(C)(C)C1C1C(=O)N(CCN3CCOCC3)C(=O)C12 (stereo not shown) [b13]	100 µM	90 µM	90 µM	–
CC1=CC2(C)CC(C)(C)C1C1C(=O)N(CCN(C)C)C(=O)C12 (stereo not shown) [b11]	300 µM	90 µM	100 µM	–
CCN(CC)CCN1C(=O)C2C(C1=O)C1(OC(C)=O)C=CC2(OC(C)=O)CC1 (stereo not shown) [b7]	–	> 1000 µM	> 1000 µM	–
CCC12C(=O)C(CC)(C(c3ccccc3)=C1c1ccccc1)C1C(=O)N(CC(O)CN(C)C)C(=O)C12 (stereo not shown) [a8]	–	> 1000 µM	> 1000 µM	–
CN(C)CCN1C(=O)C2C(C1=O)C1(c3ccccc3)CC2(c2ccccc2)C(c2ccccc2)=C1c1ccccc1 (stereo not shown) [a1]	> 1000 µM	1 µM	1 µM	–
COC12C=CC(CC1)C1C(=O)N(CCN3CCCCC3)C(=O)C12 (stereo not shown) [b4]	–	> 1000 µM	> 1000 µM	–
CC1=CC2(C)CC(C)(C)C1C1C(=O)N(CCCN(C)C)C(=O)C12 (stereo not shown) [b15]	700 µM	100 µM	90 µM	–
COC12C=CC(CC1)C1C(=O)N(CCN(C)C)C(=O)C12 (stereo not shown) [b1]	–	> 1000 µM	> 1000 µM	–
CCOC(=O)C1CC2C(=O)CC1(C)C1C(=O)N(CCN3CCOCC3)C(=O)C21 (stereo not shown) [c8]	–	> 1000 µM	> 1000 µM	–
CCOC(=O)C1CC2C(=O)CC1(C)C1C(=O)N(CCN3CCCCC3)C(=O)C21 (stereo not shown) [c9]	–	> 1000 µM	> 1000 µM	–
CN(C)CC(O)CN1C(=O)C2C(C1=O)C1(C)C(=O)C2(C)C(c2ccccc2)=C1c1ccccc1 (stereo not shown) [a12]	100 µM	100 µM	90 µM	–

Reference: patent EP2687509A2, “Dicarboxyimides derivatives for use in the treatment of cancer” (Warszawski Uniwersytet Medyczny, priority 2012, dated 2014)
